tested on: Primary Rat Hippocampal Cells; assay: Neurite outgrowth assay in primary rat hippocampal cells (MAP-2 immunofluorescence); assay type: cell-based; conditions: neurite outgrowth response reported as percent of DMSO-treated control; MAP-2 fluorescence; cells 7 days in culture
Method: Hippocampal cells were dissected from the brains of embryonic day 18 rat pups and dissociated with trypsin (1 mg/mL) and trituration. Cells were seeded at 30,000 cells/well in 96-well plates filled with 100 μL MEM and 10% FBS. At 7 days in culture, cells were fixed with 4% paraformaldehyde and immuno-fluorescence was performed.
Cultures were incubated with normal horse serum (1:50; Vector Labs) for about 20 min, rinsed and then incubated with primary antibody, microtubule associated-protein 2 (anti-mouse MAP-2; 1:1000; Chemicon) for about 2 h at about RT. Following primary antibody, cultures were rinsed and incubated with fluorescein anti-mouse IgG (rat absorbed; 1:50; Vector Labs) for about 1 h. After fluorescein incubation, the cultures were rinsed and read in PBS on a fluorescent plate reader (excitation: 485 nm; emission: 530 nm). A compound was regarded as active if the neurite outgrowth response was greater than the mean DMSO-treated control response on the same plate. The response to test compound was reported as percent of DMSO-treated control. The signal-to-noise separation was consistent: the fluorescence from DMSO control wells is at least two-fold greater than blank wells.

Row | Structure (SMILES) | Rat Hippocampal Cell Response
1 | CCC(C)(C)C(=O)C(=O)N1CCCC1C(=O)NNc1ccc2ccccc2n1 (stereo not shown) [(2)] | 107
2 | CCC(C)(C)C(=O)C(=O)N1CCCC1C(=O)NNc1ccncc1Br (stereo not shown) [(3)] | 106
3 | CCC(C)(C)C(=O)C(=O)N1CCCC1C(=O)NNc1cc(C)c2c(C)nn(C)c2n1 (stereo not shown) [(4)] | 105
4 | CCC(C)(C)C(=O)C(=O)N1CCCC1C(=O)NNc1c([N+](=O)[O-])c(C)nn1C (stereo not shown) [(5)] | <100
5 | CCC(C)(C)C(=O)C(=O)N1CCCC1C(=O)NNc1cc(C(F)(F)F)cc(C)n1 (stereo not shown) [(6)] | <100
6 | CCC(C)(C)C(=O)C(=O)N1CCCC1C(=O)NN(C)c1cc(C(F)(F)F)cc(C)n1 (stereo not shown) [(7)] | <100
7 | CCC(C)(C)C(=O)C(=O)N1CCCC1C(=O)NNc1ncc(C(F)(F)F)cc1Cl (stereo not shown) [(8)] | 106
8 | CCC(C)(C)C(=O)C(=O)N1CCCC1C(=O)NNc1ccccn1 (stereo not shown) [Compound (1), 1-(3,3-Dimethyl-2-oxo-pentanoyl)-pyrrolidine-2-carboxylic acid N′-pyridine-2-yl-hydrazide] | 157
9 | Cc1cc(C(F)(F)F)cc(NNC(=O)C2CCCCN2C(=O)C(=O)c2cccs2)n1 (stereo not shown) [Compound (9), 1-(2-Oxo-2-thiophen-2-yl-acetyl)piperidine-2-carboxylic acid N′-(6-methyl-4-trifluoromethyl-pyridin-2-yl)-hydrazide] | 118
10 | O=C(NNc1ccccn1)[C@@H]1CCN1S(=O)(=O)Cc1ccccc1 [Compound (10), 2-Azetidinecarboxylic acid, 1-[(phenylmethyl)sulfonyl]-, 2-(2-pyridinyl)hydrazide, (2S)-] | 115
